“Also recorded” adds a separate entry of the source. Structures can show the parent of a compound that is named as a salt.

These results are taken from patent publication US20090099502A1, “Microneedle Device And Transdermal Administration Device Provided With Microneedles” (HISAMITSU PHARMACEUTICAL CO., INC., priority 2006, published 2009).

Data set [1] has as its system hairless rat skin.
Description: (§1) A piece of foam tape (#9773, 7.84 cm^2) of 3M Company was pasted on the back side of the microneedle substrate in such a way that the adhesive layer of the tape would face the skin. The projecting ends of the tape were attached to the skin to bring the microneedle side of the microneedle substrate in close contact with the skin. To start the experiment, the microneedle substrate was placed on the skin and pressure applied (2 kg/patch for 5 seconds) on the substrate with a finger.
(§2) Microneedles (800 piles/patch) were coated all over their surfaces with 30 μl/patch one of the coating carriers, and dried at room temperature for 12 h for fixing. Skin removed from hairless rats was pierced with microneedles coated with the drug formulations, including those having their free forms, and samples were removed periodically. Phosphate buffer solution (PBS) was used for the receptor layer. The receptor solution sample, sampled at different time points, and acetonitrile were mixed at 1:1 ratio, stirred, centrifuged (15,000 rpm, 5° C., 5 minutes), then the supernatant was recovered, and its drug content measured by HPLC.
Animal species: Hairless rat (n=3)
The subject of data set [2] is hairless rat skin. Nature of the data set: Skin permeation tests with a drug in its free and salt forms using hairless rats (Example 7). The note with it: both the fumarate and the free form, PVA117 coating.
Description: as §1, §2
Animal species: Hairless rat (n=3)
The conditions of data set [3]: whether in the free or the salt form; cited from earlier work.
The subject of data set [4] is hairless rat skin. Put plainly: Skin permeation test of granisetron hydrochloride, blister-type drug product (Example 5). The data set is classed as in vitro ADME. The following applies: in examples 4 and 5. On the procedure:
In this experiment, the coating carrier was prepared for the entire surface of microneedles by using only 5 wt. % polyvinyl alcohol (PVA117), and the microneedles (800 pile/patch) were coated all over the surface with 30 μl/patch and dried for 12 h at room temperature for fixing. After piercing the skin with the microneedles, […] 32 wt. % aqueous solution of granisetron hydrochloride, 30 μl, was applied through the through-holes (openings) on the microneedle substrate. There were two control groups. In one of these, the microneedles were not given any coating and 30 μl of the drug solution alone was applied through the through-holes. In the other control group, an aqueous solution containing 5 wt. % of polyvinyl alcohol and 32 wt. % of granisetron hydrochloride was prepared, as before, as the coating carrier, and the microneedles (800 piles/patch) were coated all over the surface with 15 μl/patch of this coating carrier.
Skin was then removed from the trunk of a hairless rat and fitted to a vertical acrylic cell (2.54 cm^2) with the dermis side facing the receptor layer, and the whole assembly was placed in a constant temperature chamber set at 37° C. […] The drug content of the receptor solution obtained at each time of sampling was measured by HPLC (Excitation: 298 nm, fluorescence: 353 nm). […]

Regarding `CC(C)NCC(O)COc1ccc(COCCOC(C)C)cc1` (stereo not drawn) [Bisoprolol, bisoprolol], the “maximum flux, salt form compared with free form” value in the data set with hairless rat skin [1] is given as “higher maximum flux in their salt form than in their free form”. Also, in the data set on hairless rat skin [1] (hairless, rat, 16 wt. %), the “maximum flux, Free form” value amounted to 60 μg/cm^2/hr and the “maximum flux, Salt” value came to 90 μg/cm^2/hr. In the data set on hairless rat skin [2], the skin permeability result was “good skin permeability”.

As to `CCCN1C[C@H](CSC)C[C@@H]2c3cccc4[nH]cc(c34)C[C@H]21` [Pergolide, pergolide], in the data set with hairless rat skin [1] (hairless, rat, 16 wt. %), the “amount of drug permeation” value is listed as “about 1 μg”; the “maximum flux, Free form” value was 0.1< μg/cm^2/hr; the “maximum flux, Salt” value is listed as 0.1< μg/cm^2/hr. Also, the solubility in water entry in data set [3] was “almost no solubility in water; also recorded: extremely low solubility”.

With `CCCN[C@H]1CCc2nc(N)sc2C1` [Pramipexol, pramipexol], in the data set with hairless rat skin [1], the “maximum flux, salt form compared with free form” value is reported as “higher maximum flux in their salt form than in their free form”. Moreover, in the data set on hairless rat skin [1] (hairless, rat, 16 wt. %), the “maximum flux, Free form” value came out at 100 μg/cm^2/hr and the “maximum flux, Salt” value came to 180 μg/cm^2/hr.

Turning to `CN1C2CCCC1CC(NC(=O)c1nn(C)c3ccccc13)C2` (stereo not drawn) [granisetron hydrochloride], the skin permeability entry with hairless rat skin [4] was “good skin permeability”.
